Measured values from patent US5506102A (priority 1993, dated 1996).
“Also recorded” adds a separate entry of the source. Blank lines part the entries; values can stand above or below the compound they belong to.

Tests used:
human androgen receptor [1] = target: T1, human androgen receptor (Homo sapiens, UniProt P10275); experiment: AR transcriptional activity on MMTV-LUC, CV-1 cells, AR co-expressed with PR-A; type: cell-based; conditions: AR plus PR-A, FIG. 10B
T1 sequence (P10275 1-920): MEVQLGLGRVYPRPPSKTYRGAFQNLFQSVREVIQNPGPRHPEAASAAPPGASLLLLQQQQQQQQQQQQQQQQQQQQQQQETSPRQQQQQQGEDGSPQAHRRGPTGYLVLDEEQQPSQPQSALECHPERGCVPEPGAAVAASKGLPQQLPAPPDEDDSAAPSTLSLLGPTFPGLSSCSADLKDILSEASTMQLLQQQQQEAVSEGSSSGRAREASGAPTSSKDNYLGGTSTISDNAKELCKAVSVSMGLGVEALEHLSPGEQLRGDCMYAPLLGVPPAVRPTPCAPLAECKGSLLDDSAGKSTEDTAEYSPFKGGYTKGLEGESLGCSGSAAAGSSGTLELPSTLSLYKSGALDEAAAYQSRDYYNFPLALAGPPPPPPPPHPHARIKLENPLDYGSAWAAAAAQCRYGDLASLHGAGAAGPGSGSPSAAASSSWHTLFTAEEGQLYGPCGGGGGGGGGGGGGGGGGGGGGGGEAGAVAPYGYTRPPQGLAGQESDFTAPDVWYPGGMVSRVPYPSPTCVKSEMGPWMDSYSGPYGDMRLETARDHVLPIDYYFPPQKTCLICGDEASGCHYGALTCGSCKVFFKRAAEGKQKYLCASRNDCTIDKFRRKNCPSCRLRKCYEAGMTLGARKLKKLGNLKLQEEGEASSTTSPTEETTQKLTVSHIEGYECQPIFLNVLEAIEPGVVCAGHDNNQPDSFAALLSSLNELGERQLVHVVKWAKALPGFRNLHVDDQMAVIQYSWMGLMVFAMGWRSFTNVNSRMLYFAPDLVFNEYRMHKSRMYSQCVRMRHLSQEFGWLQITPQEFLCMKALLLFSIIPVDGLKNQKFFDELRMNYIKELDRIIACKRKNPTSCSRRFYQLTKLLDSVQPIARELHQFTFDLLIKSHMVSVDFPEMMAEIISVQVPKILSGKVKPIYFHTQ
Method: (§1) FIGS. 10A-10B are a series of graphs showing CV-1 cells that were transiently transfected with an expression vector for the human androgen receptor (pRShAR) alone, or in combination with phPR-A together with 5 µg/ml of the MMTV-LUC reporter and 5 µg/ml of pCH110 as an internal control. […] The relative luciferase activity is calculated by dividing the normalized luciferase value at a given point by that obtained in the absence of transfected receptor or ligand. […] The data are presented as percent (%) activation, where 100% represents the maximal induction achieved by human androgen receptor at 10^ -8 M DHT. The experimental data represents mean values +/- the average deviation from the mean of quadruplicate estimations;
(§2) Cells were seeded in 12-well, 96-well or 10 cm tissue culture plates. […] 20 μg of DNA/ml of transfection buffer were used in each transfection reaction. In this mix, the concentration of the luciferase plasmids and that of the internal control plasmid pCH110 (Pharmacia, Inc.), which contains the gene for the β-galactosidase enzyme, remained constant ([…] of each plasmid DNA), while the receptor plasmid concentration varied as indicated for each experiment. […]

ER = ER transcriptional activity on MMTV-ERE-LUC in HepG2 and HS578T cells; type: cell-based; conditions: data not shown
PR = conditions: cited from earlier work
[2] = tested on: glucocorticoid receptor (GR); experiment: GR transcriptional activity on MMTV-LUC, CV-1 cells, GR co-expressed with PR-A; type: cell-based
Method: (§3) Cells were seeded in 12-well, 96-well or 10 cm tissue culture plates. […] 20 μg of DNA/ml of transfection buffer were used in each transfection reaction. In this mix, the concentration of the luciferase plasmids and that of the internal control plasmid pCH110 (Pharmacia, Inc.), which contains the gene for the β-galactosidase enzyme, remained constant ([…] of each plasmid DNA), while the receptor plasmid concentration varied as indicated for each experiment. Different amounts of receptor parental plasmid, pSV2-neo (Dr. Bert O'Malley, Baylor College of Medicine, Houston, Tex.) was included to keep constant the total amount of the SV40 enhancer vectors. pGEM4 plasmid DNA (Promega Biotech, Madison, Wis.) was added to balance the total DNA concentration to 20 g/reaction. For the 96-well plate experiments, transfections were performed on a Biomek 1000 Automated Laboratory Workstation (Beckman Instruments, Fullerton, Calif.).
(§4) Cells were seeded 24 hours prior to transfection in the fiat-bottom tissue culture plates ([…]) in phenol red-free DMEM containing 10% FCS. […] Using calcium phosphate co-precipitation, DNA solution was added dropwise with vortexing into an equal volume of 2X HBS pH 6.9 (280 mM NaCl. 50 mM HEPES, 1.5 mM Na2 HPO4) and precipitates were allowed to form for 20 minutes. Cells were transfected ( […] of DNA mix/well) for 6 hours and then washed with phosphate-bufferedsaline (PBS) to remove the precipitate. Cells were incubated for an additional 24 hours in phenol red-free medium containing 10% charcoal-treated FCS, with or without hormones as indicated in the text. Cell extracts were prepared as described by Berger et al., Supra, and assayed for luciferase and β-galactosidase activities. All determinations were performed in triplicates in at least two independent experiments, and were normalized for transfection efficiency by using β-galactosidase as an internal control.

AR = conditions: stated without data; cited from earlier work
human androgen receptor [3] = target: T1, human androgen receptor; experiment: AR transcriptional activity on MMTV-LUC, CV-1 cells, AR alone; type: cell-based; conditions: FIG. 10
Method: as §1, §2

human estrogen receptor [4] = experiment: ER transcriptional activity on MMTV-ERE-LUC, CV-1 cells, ER co-expressed with PR-A; type: cell-based
Method: (§5) All values were normalized for transfection efficiency by simultaneous estimation of luciferase and β-galactocidase activities. The relative luciferase activity is calculated by dividing the normalized luciferase value at a given point by that obtained in the absence of transfected receptor or ligand. Data shown represent the mean +/- the average deviation from the mean of triplicate estimations.
(§6) Experimental protocols and data calculation are as described in FIG. 11. The experiment detailed above is representative of independent assays (N>3). Data shown represent the mean +/- the average deviation from the mean of triplicate estimations.
Vegeto et al., supra. Cells were plated into 96-well tissue culture plates. The vector DNA was introduced into the CV-1 cells using calcium phosphate coprecipitation as described herein. More specifically, 20 μg of DNA/ml of transfection buffer were used in each transfection. Each transfection mix included 0.5 μg of pRST7hER, 9.5 μg of MMTV-ERE-LUC, 5 μg of pCH110, (which contains the gene for β-galactosidase) as an internal control and 5 μg of PGEM4 DNA as a carrier. Depending on the experiment, 0.1 μg pSVhPR-A or pSVhPR-B and an amount of pSVXV2neo (Dr. Bert O'Malley, Baylor College of Medicine) to bring the total amount of DNA to 20 μg was added. The concentration of pXVhPR-A vector chosen was determined by performing the experiment at several different concentrations of vector, and then using that concentration that was optimal for transcriptional readout. The concentration of pSVhPR-B vector was chosen based upon the amount required to give an identical amount of immunoreactive PR-A and PR-B. After transfections using a Biomek 1000 automated laboratory workstation, the cells were incubated with the precipitate for 6 hours. Cells were washed with PBS and incubated for 40 hours with or without hormones as indicated. Cell extracts were prepared as previously described herein and assayed for luciferase (LUC) and β-galactosidase activities. The Normalized LUC activity was calculated by dividing the raw luciferase (×10^4) units for each point by the β-galactosidase activity [(OD415 nm ×10^5)/time min.] at that point.

human estrogen receptor [5] = target: T2, human estrogen receptor (Homo sapiens, UniProt P03372); experiment: ER transcriptional activity on MMTV-ERE-LUC, CV-1 cells, ER alone; type: cell-based; conditions: 10^-7 M 17-β-estradiol, FIG. 11B
T2 construct: expressed in transfected cells; host or cells: CV-1
T2 sequence (P03372 1-595): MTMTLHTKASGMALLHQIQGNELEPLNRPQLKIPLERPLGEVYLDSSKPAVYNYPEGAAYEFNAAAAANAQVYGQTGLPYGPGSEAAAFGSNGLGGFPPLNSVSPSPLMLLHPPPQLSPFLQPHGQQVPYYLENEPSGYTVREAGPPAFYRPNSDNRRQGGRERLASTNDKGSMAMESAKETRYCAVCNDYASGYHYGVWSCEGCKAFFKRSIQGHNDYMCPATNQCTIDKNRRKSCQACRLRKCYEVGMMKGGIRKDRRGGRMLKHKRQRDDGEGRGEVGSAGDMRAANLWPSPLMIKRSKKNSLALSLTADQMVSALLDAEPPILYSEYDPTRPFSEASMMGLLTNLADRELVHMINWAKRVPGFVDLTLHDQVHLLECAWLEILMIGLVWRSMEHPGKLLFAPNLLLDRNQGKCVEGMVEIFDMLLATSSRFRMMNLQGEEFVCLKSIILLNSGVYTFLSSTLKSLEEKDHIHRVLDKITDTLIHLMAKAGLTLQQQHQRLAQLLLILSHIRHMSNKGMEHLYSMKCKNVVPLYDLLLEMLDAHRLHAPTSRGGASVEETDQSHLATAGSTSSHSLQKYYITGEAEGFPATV
Method: as §5, §6
(§7) Vegeto et al., supra. Cells were plated into 96-well tissue culture plates. The vector DNA was introduced into the CV-1 cells using calcium phosphate coprecipitation as described herein. More specifically, 20 μg of DNA/ml of transfection buffer were used in each transfection. […] The concentration of pXVhPR-A vector chosen was determined by performing the experiment at several different concentrations of vector, and then using that concentration that was optimal for transcriptional readout. […] The Normalized LUC activity was calculated by dividing the raw luciferase (×10^4) units for each point by the β-galactosidase activity [(OD415 nm ×10^5)/time min.] at that point.

human estrogen receptor [6] = target: T2, human estrogen receptor; experiment: ER transcriptional activity on MMTV-ERE-LUC, CV-1 cells, ER co-expressed with PR-B; type: cell-based; conditions: FIG. 11B
Method: as §5
as §7, with “transfection. Each transfection mix included 0.5 μg of pRST7hER, 9.5 μg of MMTV-ERE-LUC, 5 μg of pCH110, (which contains the gene for β-galactosidase) as an internal control and 5 μg of PGEM4 DNA as a carrier.” for “transfection.”

[7] = target: T3, glucocorticoid receptor (GR) (Homo sapiens, UniProt P04150)
T3 sequence (P04150 1-777): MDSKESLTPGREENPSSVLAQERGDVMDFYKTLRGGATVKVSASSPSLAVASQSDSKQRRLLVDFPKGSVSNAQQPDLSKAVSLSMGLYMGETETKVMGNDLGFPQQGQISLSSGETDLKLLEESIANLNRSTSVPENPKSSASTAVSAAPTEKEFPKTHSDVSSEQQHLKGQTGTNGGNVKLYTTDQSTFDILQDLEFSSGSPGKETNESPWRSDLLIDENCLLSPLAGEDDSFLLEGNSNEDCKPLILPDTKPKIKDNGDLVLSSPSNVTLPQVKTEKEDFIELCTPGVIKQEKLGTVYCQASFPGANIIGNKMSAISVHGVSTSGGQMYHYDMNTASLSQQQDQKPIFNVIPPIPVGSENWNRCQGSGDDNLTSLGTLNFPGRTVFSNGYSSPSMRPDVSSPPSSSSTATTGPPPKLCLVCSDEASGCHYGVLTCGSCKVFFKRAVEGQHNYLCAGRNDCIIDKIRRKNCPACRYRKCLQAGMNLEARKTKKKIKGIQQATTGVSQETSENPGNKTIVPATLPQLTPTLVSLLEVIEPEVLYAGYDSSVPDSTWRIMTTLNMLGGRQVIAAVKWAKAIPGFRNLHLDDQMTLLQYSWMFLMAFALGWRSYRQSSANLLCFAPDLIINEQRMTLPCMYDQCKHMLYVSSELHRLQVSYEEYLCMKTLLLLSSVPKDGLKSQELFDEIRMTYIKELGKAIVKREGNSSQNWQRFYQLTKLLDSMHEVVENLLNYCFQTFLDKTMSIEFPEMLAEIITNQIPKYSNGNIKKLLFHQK
Method: as §3, §4

IC50 (human estrogen receptor [4]; 10^-7 M 17-β-estradiol, read-out: half maximal inhibition (IC50) of ER in the presence of hPR-A): 3 nM
SMILES: CN(C)c1ccc([C@H]2C[C@]3(C)[C@@H](CC[C@]3(O)CCCO)[C@@H]3CCC4=CC(=O)CCC4=C32)cc1 [ZK98299]
effect on DHT-induced AR activity in the presence of PR-A (human androgen receptor [1]): addition of PR-A to the cells increased this compound's sensitivity | anti-estrogenic activity (ER; HS578T cells): both anti-progestins functioned as anti-estrogens | anti-estrogenic activity (ER; HepG2 cells): neither anti-progestin exhibited any anti-estrogenic activity | effect on PR DNA binding (PR): retards DNA binding; also recorded: interferes with DNA binding | inhibition of GR function via PR-A ([2]; MMTV promoter, dexamethasone present, FIG. 8A): mediated an inhibition of GR function; also recorded: promotes PR-A repressor function | affinity for AR (AR): low affinity for AR | effect on DHT-induced AR activity (human androgen receptor [3]): minimal direct effects on AR transcriptional activity | efficacy compared to the pure anti-estrogen ICI-164,384 (human estrogen receptor [4]; PR-A co-expressed, 100% = 10^-7 M 17-β-estradiol + 10^-6 M ICI-164,384, FIG. 12): 70%

SMILES: CC(=O)O[C@]1(C(C)=O)CC[C@H]2[C@@H]3C[C@H](C)C4=CC(=O)CC[C@]4(C)[C@H]3CC[C@@]21C [medroxyprogesterone acetate, Medroxyprogesterone acetate]
anti-estrogen activity of PR agonists (human estrogen receptor [4]; PR-A co-expressed, 10^-7 M 17-β-estradiol, FIG. 13): considerably less effective

SMILES: CCCCN(C)C(=O)CCCCCCCCCC[C@@H]1Cc2cc(O)ccc2[C@H]2CC[C@]3(C)[C@@H](O)CC[C@H]3[C@H]12 [ICI-164,384]
effect of hPR-A co-expression on activity of ICI-164,384 (human estrogen receptor [4]; FIG. 11B): did not affect the activity | inhibition of 17-β-estradiol induced ER transcriptional activation (human estrogen receptor [5]): can be inhibited by addition of the pure anti-estrogen ICI-164,384 | effect of hPR-B co-expression on activity of ICI-164,384 (human estrogen receptor [6]): did not affect the activity

maximally activated GR (100% value) [7]: > 450 normalized response | maximal activity of GR (100% value) ([7]; cv-1 cells, 0.01 µM): > 450 fold normalized response | induction of MMTV promoter activity ([7]; cv-1 cells, 24 h, 0.1 µM): 450 fold
SMILES: C[C@@H]1C[C@H]2[C@@H]3CCC4=CC(=O)C=C[C@]4(C)[C@@]3(F)[C@@H](O)C[C@]2(C)[C@@]1(O)C(=O)CO [dexamethasone]
dexamethasone induction of GR activity, of control levels [2]: about 53%
